# Source: BigSolDB 2.1
structure (smiles),measurement,setting,value
Nc1cnc(Br)cn1,solubility (mole fraction),"in DMF, 278.15 K",0.00849
same,solubility (mole fraction),"in DMF, 283.15 K",0.00942
same,solubility (mole fraction),"in DMF, 288.15 K",0.0106
same,solubility (mole fraction),"in DMF, 293.15 K",0.0119
same,solubility (mole fraction),"in DMF, 298.15 K",0.0133
same,solubility (mole fraction),"in DMF, 303.15 K",0.0149
same,solubility (mole fraction),"in DMF, 308.15 K",0.0165
same,solubility (mole fraction),"in DMF, 313.15 K",0.0185
same,solubility (mole fraction),"in DMF, 318.15 K",0.0205
same,solubility (mole fraction),"in DMF, 323.15 K",0.0227
same,solubility (mole fraction),"in acetone, 278.15 K",0.00684
same,solubility (mole fraction),"in acetone, 283.15 K",0.0076
same,solubility (mole fraction),"in acetone, 288.15 K",0.00856
same,solubility (mole fraction),"in acetone, 293.15 K",0.00961
same,solubility (mole fraction),"in acetone, 298.15 K",0.0108
same,solubility (mole fraction),"in acetone, 303.15 K",0.012
same,solubility (mole fraction),"in acetone, 308.15 K",0.0134
same,solubility (mole fraction),"in acetone, 313.15 K",0.0149
same,solubility (mole fraction),"in acetone, 318.15 K",0.0165
same,solubility (mole fraction),"in acetone, 323.15 K",0.0183
same,solubility (mole fraction),"in ethanol, 278.15 K",0.00144
same,solubility (mole fraction),"in ethanol, 283.15 K",0.00158
same,solubility (mole fraction),"in ethanol, 288.15 K",0.00174
same,solubility (mole fraction),"in ethanol, 293.15 K",0.00194
same,solubility (mole fraction),"in ethanol, 298.15 K",0.00217
same,solubility (mole fraction),"in ethanol, 303.15 K",0.00243
same,solubility (mole fraction),"in ethanol, 308.15 K",0.00272
same,solubility (mole fraction),"in ethanol, 313.15 K",0.00308
same,solubility (mole fraction),"in ethanol, 318.15 K",0.00345
same,solubility (mole fraction),"in ethanol, 323.15 K",0.0039
same,solubility (mole fraction),"in ethylene glycol, 278.15 K",0.000694
same,solubility (mole fraction),"in ethylene glycol, 283.15 K",0.000773
same,solubility (mole fraction),"in ethylene glycol, 288.15 K",0.000869
same,solubility (mole fraction),"in ethylene glycol, 293.15 K",0.00097
same,solubility (mole fraction),"in ethylene glycol, 298.15 K",0.00109
same,solubility (mole fraction),"in ethylene glycol, 303.15 K",0.00121
same,solubility (mole fraction),"in ethylene glycol, 308.15 K",0.00135
same,solubility (mole fraction),"in ethylene glycol, 313.15 K",0.00149
same,solubility (mole fraction),"in ethylene glycol, 318.15 K",0.00166
same,solubility (mole fraction),"in ethylene glycol, 323.15 K",0.00184
same,solubility (mole fraction),"in isopropanol, 278.15 K",0.00282
same,solubility (mole fraction),"in isopropanol, 283.15 K",0.00308
same,solubility (mole fraction),"in isopropanol, 288.15 K",0.0034
same,solubility (mole fraction),"in isopropanol, 293.15 K",0.0038
same,solubility (mole fraction),"in isopropanol, 298.15 K",0.00429
same,solubility (mole fraction),"in isopropanol, 303.15 K",0.00477
same,solubility (mole fraction),"in isopropanol, 308.15 K",0.00531
same,solubility (mole fraction),"in isopropanol, 313.15 K",0.00594
same,solubility (mole fraction),"in isopropanol, 318.15 K",0.0066
same,solubility (mole fraction),"in isopropanol, 323.15 K",0.00735
same,solubility (mole fraction),"in methanol, 278.15 K",0.000887
same,solubility (mole fraction),"in methanol, 283.15 K",0.000981
same,solubility (mole fraction),"in methanol, 288.15 K",0.00108
same,solubility (mole fraction),"in methanol, 293.15 K",0.00121
same,solubility (mole fraction),"in methanol, 298.15 K",0.00135
same,solubility (mole fraction),"in methanol, 303.15 K",0.00151
same,solubility (mole fraction),"in methanol, 308.15 K",0.00167
same,solubility (mole fraction),"in methanol, 313.15 K",0.00185
same,solubility (mole fraction),"in methanol, 318.15 K",0.00204
same,solubility (mole fraction),"in methanol, 323.15 K",0.00225
same,solubility (mole fraction),"in n-butanol, 278.15 K",0.00541
same,solubility (mole fraction),"in n-butanol, 283.15 K",0.00601
same,solubility (mole fraction),"in n-butanol, 288.15 K",0.00678
same,solubility (mole fraction),"in n-butanol, 293.15 K",0.00757
same,solubility (mole fraction),"in n-butanol, 298.15 K",0.00853
same,solubility (mole fraction),"in n-butanol, 303.15 K",0.00953
same,solubility (mole fraction),"in n-butanol, 308.15 K",0.0106
same,solubility (mole fraction),"in n-butanol, 313.15 K",0.0118
same,solubility (mole fraction),"in n-butanol, 318.15 K",0.0131
same,solubility (mole fraction),"in n-butanol, 323.15 K",0.0145
same,solubility (mole fraction),"in n-propanol, 278.15 K",0.00353
same,solubility (mole fraction),"in n-propanol, 283.15 K",0.00392
same,solubility (mole fraction),"in n-propanol, 288.15 K",0.00445
same,solubility (mole fraction),"in n-propanol, 293.15 K",0.00497
same,solubility (mole fraction),"in n-propanol, 298.15 K",0.00563
same,solubility (mole fraction),"in n-propanol, 303.15 K",0.00625
same,solubility (mole fraction),"in n-propanol, 308.15 K",0.00696
same,solubility (mole fraction),"in n-propanol, 313.15 K",0.00774
same,solubility (mole fraction),"in n-propanol, 318.15 K",0.00858
same,solubility (mole fraction),"in n-propanol, 323.15 K",0.0095
same,solubility (mole fraction),"in propylene glycol, 278.15 K",0.00113
same,solubility (mole fraction),"in propylene glycol, 283.15 K",0.00125
same,solubility (mole fraction),"in propylene glycol, 288.15 K",0.00139
same,solubility (mole fraction),"in propylene glycol, 293.15 K",0.00153
same,solubility (mole fraction),"in propylene glycol, 298.15 K",0.00173
same,solubility (mole fraction),"in propylene glycol, 303.15 K",0.00192
same,solubility (mole fraction),"in propylene glycol, 308.15 K",0.00216
same,solubility (mole fraction),"in propylene glycol, 313.15 K",0.00239
same,solubility (mole fraction),"in propylene glycol, 318.15 K",0.00266
same,solubility (mole fraction),"in propylene glycol, 323.15 K",0.00294
same,solubility (mole fraction),"in water, 278.15 K",1.76e-05
same,solubility (mole fraction),"in water, 283.15 K",1.93e-05
same,solubility (mole fraction),"in water, 288.15 K",2.18e-05
same,solubility (mole fraction),"in water, 293.15 K",2.43e-05
same,solubility (mole fraction),"in water, 298.15 K",2.73e-05
same,solubility (mole fraction),"in water, 303.15 K",3.08e-05
same,solubility (mole fraction),"in water, 308.15 K",3.42e-05
same,solubility (mole fraction),"in water, 313.15 K",3.83e-05
same,solubility (mole fraction),"in water, 318.15 K",4.27e-05
same,solubility (mole fraction),"in water, 323.15 K",4.77e-05
